Measurements from article PMC11048362, “Conformational Modulation of Tissue Transglutaminase via Active Site Thiol Alkylating Agents: Size Does Not Matter” (Biomolecules, 2024).

Target: T1, TG2 (human tissue transglutaminase) (Homo sapiens, UniProt P21980)
T1 construct: gene TGM2; recombinant, expressed in and purified from E. coli as previously described; catalytic Cys277
T1 sequence (P21980 2-687): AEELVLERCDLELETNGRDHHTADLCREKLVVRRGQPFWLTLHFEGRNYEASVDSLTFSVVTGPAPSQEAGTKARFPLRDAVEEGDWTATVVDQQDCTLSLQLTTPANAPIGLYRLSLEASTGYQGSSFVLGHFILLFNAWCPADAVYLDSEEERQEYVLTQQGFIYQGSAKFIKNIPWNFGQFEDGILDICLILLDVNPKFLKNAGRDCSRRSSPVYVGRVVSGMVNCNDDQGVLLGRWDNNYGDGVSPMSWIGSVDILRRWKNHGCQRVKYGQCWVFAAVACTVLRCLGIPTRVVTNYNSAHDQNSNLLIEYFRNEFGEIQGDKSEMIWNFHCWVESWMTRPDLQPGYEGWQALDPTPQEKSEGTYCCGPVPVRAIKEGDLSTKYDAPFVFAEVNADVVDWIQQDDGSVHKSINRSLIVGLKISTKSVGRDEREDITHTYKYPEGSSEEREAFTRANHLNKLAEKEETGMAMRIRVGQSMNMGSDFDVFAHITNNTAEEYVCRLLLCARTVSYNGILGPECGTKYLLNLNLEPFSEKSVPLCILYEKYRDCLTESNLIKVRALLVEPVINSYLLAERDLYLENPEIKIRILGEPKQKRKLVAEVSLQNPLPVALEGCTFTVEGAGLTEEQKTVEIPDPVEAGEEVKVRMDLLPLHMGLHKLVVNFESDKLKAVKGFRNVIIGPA
Assay: colorimetric AL5 hydrolysis at […] nm, Kitz and Wilson time-dependent inactivation, saturation fit
Type: biochemical
Conditions: covalent (Cys277), irreversible; 100 µM AL5, corrected for substrate competition; 50 mM MOPS pH 6.91, 15.5 mM CaCl2, 25 °C

| Structure (SMILES) | KI (inactivation) |
| --- | --- |
| C=CC(=O)NCC(=O)N1CCN(C(=O)OC(C)(C)C)CC1 [compound 2, 2] | 129 ± 53 µM |
| C=CC(=O)NCC(=O)N1CCN(C(C)=O)CC1 [compound 3, 3] | 96 ± 17 µM |
| C=CC(=O)NCC(=O)N1CCN(C(=O)C23CC4CC(CC(C4)C2)C3)CC1 [compound 1, 1] | 3.2 ± 1 µM |
| C=CC(N)=O [compound 8, acrylamide] | 148 ± 68 µM |

Results, then the compound that gave them:

| KI (inactivation) | Structure (SMILES) |
| --- | --- |
| 118 ± 59 µM | C=CC(=O)N1CCN(C(=O)C23CC4CC(CC(C4)C2)C3)CC1 [compound 4, 4] |
| 487 ± 161 µM | C=CC(=O)NCC(=O)N1CCOCC1 [compound 5, 5] |
| 842 ± 25 µM | C=CC(=O)NCC(N)=O [compound 6, 6] |
